Results published in US5187155A, “Anticoagulant peptides” (Board of Regents, The University of Texas System, priority 1989, dated 1993).
Several values for one entry are separate records, joined by “and”; a condition that tells them apart may be missing. Equal entries are not always repeated. Where a SMILES comes first, the peptide text is derived from it. Where no end group is shown, it is not given here.

Columns and labels:
[1] = target: extrinsic activation complex (factor VIIa:tissue factor) (Homo sapiens, UniProt P08709+P13726); experiment: Rate of Factor Xa formation by the extrinsic activation complex, kinetic chromogenic assay; type: biochemical; conditions: for Factor Xa Formation (% of Control Rate) Extrinsic: 1 mg/ml (0.29-1.1 mM) peptide, 30 min at 37 degrees preincubation
[2] = target: T1, intrinsic activation complex (factor IXa:factor VIIIa) (Homo sapiens, UniProt P00451+P00740); experiment: Rate of Factor Xa formation by the intrinsic activation complex, kinetic chromogenic assay; type: biochemical; conditions: for Factor Xa Formation (% of Control Rate) Intrinsic: 1 mg/ml (0.29-1.1 mM) peptide, 30 min at 37 degrees preincubation
T1 construct: Factor IXa was produced from contact product (14) and isolated as previously described (12); made in house; host or cells: Factor IXa produced from isolated Factor IX with contact product; Factor VIII was a gift from Rorer Biotechnology, Inc

RVV-X = RVV-X (Daboia siamensis, UniProt Q4PRD1+Q4PRD2+Q7LZ61); experiment: biochemical; set-up: species or system Russell's viper
[3] = target: T2, Factor Xa:Factor Va complex (Homo sapiens, UniProt P12259); experiment: Rate of thrombin formation (prothrombin activation by Factor Xa), chromogenic assay; type: biochemical; conditions: for Thrombin Formation (% of Control Rate): 200 μM final concentration of peptide
T2 sequence (P12259 29-737 limits assumed): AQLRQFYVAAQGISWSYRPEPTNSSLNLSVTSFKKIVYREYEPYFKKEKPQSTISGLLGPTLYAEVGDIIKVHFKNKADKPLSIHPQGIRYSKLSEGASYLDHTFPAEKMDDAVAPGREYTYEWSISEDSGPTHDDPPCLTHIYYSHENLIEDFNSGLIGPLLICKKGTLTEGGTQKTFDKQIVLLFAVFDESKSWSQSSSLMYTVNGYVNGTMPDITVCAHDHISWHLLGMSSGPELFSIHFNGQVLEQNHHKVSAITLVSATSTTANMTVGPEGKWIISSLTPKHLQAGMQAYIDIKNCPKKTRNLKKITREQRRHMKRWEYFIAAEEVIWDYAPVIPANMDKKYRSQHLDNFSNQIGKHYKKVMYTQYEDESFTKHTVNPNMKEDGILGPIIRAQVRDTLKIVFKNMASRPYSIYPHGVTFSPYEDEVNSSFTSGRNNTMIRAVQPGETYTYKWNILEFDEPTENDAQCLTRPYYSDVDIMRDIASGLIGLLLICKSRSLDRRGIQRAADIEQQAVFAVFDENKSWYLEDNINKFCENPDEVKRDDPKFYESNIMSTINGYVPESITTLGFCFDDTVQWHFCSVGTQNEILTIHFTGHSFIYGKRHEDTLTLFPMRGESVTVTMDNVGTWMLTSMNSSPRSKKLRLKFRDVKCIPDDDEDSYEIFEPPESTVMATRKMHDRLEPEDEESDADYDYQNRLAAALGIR
T2 sequence (P12259 1574-2224 limits assumed): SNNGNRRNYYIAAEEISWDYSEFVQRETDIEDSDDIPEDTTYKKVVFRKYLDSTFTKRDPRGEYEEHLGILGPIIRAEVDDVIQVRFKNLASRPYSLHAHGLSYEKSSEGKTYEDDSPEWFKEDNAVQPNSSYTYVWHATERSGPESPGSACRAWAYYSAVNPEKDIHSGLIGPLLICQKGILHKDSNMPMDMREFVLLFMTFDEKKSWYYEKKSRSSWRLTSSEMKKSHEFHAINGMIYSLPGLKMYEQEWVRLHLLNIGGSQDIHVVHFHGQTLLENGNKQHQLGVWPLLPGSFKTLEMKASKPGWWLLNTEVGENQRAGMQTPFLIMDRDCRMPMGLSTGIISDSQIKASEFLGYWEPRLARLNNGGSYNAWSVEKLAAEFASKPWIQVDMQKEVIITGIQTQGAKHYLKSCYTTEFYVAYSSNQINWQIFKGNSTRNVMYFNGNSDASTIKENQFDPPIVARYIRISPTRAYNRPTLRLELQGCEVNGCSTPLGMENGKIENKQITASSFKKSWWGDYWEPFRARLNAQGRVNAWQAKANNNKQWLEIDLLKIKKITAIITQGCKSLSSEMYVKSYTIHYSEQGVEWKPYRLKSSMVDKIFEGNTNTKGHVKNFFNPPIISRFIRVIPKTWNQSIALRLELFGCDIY
Experimental: b. Rate of Thrombin Formation: The ability of the synthetic peptides to inhibit Factor Xa function was assessed by their capacity to impede the rate of thrombin formation using a purified system and employing a specific thrombin chromogenic substrate. To 10 ul of Factor V (1.5 nM) was added 10 ul of phospholipid vesicles (30 uM), 3.3 ul of CaCl2 (100 mM) and 57 ul of TBS-BSA or synthetic peptide. The mixture was incubated at 37 degrees Centigrade for 15 minutes, after which 20 ul of Factor Xa (12 pM) and prothrombin (0.35 uM) were added to initiate the reaction.
At defined time intervals from initiation of either reaction (a) or (b), 20 ul aliquots were removed and added to a microtiter plate containing 80 ul of 50 mM Tris-HCl, 225 mM NaCl, 10 mM EDTA, pH 8.2. […] The rate of Factor Xa or thrombin formation was calculated from the slope of linear regressions of data plotted as a function of the initial rate of hydrolysis (OD 405/min) versus time and expressed as OD 405/min/min.
Factor Xa associates with activated Factor Va on a phospholipid surface in the presence of calcium. A chromogenic assay was used to investigate the ability of the panel of synthetic peptides to inhibit the activation of prothrombin by Factor Xa. In preliminary experiments it was determined that similar results were obtained whether prothrombin was added before or after factor Xa and that the 15 minute incubation period was sufficient for the peptide-protein interactions to reach equilibrium. […] Seven peptides prevented thrombin formation by greater than 40% when compared to reactions containing buffer only. These peptides represented the amino acid sequences 211-222, 237-262, 254-269, 267-283, 284-303, 363-375, 417-431. Thus, a limited number of synthetic peptides representing the primary structure of Factor Xa could inhibit this reaction and these were analyzed further.

[4] = test system: Factor X coagulant activity, intrinsic pathway; experiment: Two-stage clotting assay, intrinsic activation of Factor X
Experimental: (§1) Coagulation Assays: The effect of the synthetic peptide and antibodies to them on Factor X coagulation activity was determined using two-stage clotting assays specific for Factor X activation by the intrinsic, extrinsic, and RVV-X activation enzyme complexes.
(§2) For determination of extrinsic activation of Factor X, 50 ul of bovine Factor VII/X deficient plasma was added 50 ul each of 1.5 nM Factor VII/VIIa, 1% tissue factor, 25 mM CaCl2, and peptide in TBS-BSA. Following incubation for 30 min at 37 degrees Centigrade, coagulation was initiated by the addition of 50 ul of 200 nM of Factor X, and the time for clot formation was measured. […] Factor X (50 ul of 105 nM) was added to initiate the reaction and the time for clot formation measured. […] Factor X and Xa activity was measured by the addition of 50 ul of 25 nM Factor X and the time for clot formation determined. […]
(§3) Analogous determinations of the CI50 values were measured in each of the specific coagulation assays outlined above. Factor X/Xa activity in the presence of varying concentrations of peptide was measured by comparing the clotting times to a standard curve constructed from the log of the clot time versus the log of Factor X concentration in the same incubation mixtures lacking peptides. […]

[5] = test system: Factor X coagulant activity, extrinsic pathway; experiment: Two-stage clotting assay, extrinsic activation of Factor X
Experimental: as §1, §2, §3

[6] = test system: Factor X coagulant activity, RVV-X pathway; experiment: Two-stage clotting assay, RVV-X mediated activation of Factor X; set-up: species or system human
[7] = 267-283 at 6 uM, 284-303 at 60 uM, 417-431 at 600 uM, alone or mixed

T1 sequence (P00740 47-191 limits assumed): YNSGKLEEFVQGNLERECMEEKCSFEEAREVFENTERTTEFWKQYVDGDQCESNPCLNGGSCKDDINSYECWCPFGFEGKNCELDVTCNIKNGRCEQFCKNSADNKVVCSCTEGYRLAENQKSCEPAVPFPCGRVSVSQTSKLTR
T1 sequence (P00740 227-461 limits assumed): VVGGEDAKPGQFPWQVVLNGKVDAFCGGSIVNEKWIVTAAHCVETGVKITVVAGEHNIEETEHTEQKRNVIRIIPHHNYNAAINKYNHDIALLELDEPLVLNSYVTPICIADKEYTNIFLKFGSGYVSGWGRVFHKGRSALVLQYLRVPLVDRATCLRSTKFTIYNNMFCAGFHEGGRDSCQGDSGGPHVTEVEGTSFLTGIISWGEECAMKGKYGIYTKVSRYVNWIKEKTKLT
T1 sequence (P00451 20-391 limits assumed): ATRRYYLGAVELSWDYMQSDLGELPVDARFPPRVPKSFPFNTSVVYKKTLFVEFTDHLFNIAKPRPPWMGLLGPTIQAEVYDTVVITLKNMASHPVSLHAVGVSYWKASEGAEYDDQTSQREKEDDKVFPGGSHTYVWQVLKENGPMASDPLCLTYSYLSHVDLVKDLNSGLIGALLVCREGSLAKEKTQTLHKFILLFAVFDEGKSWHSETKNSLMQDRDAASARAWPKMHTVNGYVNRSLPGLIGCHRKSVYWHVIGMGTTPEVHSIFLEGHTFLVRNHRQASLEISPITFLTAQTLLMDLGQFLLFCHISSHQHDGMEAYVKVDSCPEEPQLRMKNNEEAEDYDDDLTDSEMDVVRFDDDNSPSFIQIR
T1 sequence (P00451 392-759 limits assumed): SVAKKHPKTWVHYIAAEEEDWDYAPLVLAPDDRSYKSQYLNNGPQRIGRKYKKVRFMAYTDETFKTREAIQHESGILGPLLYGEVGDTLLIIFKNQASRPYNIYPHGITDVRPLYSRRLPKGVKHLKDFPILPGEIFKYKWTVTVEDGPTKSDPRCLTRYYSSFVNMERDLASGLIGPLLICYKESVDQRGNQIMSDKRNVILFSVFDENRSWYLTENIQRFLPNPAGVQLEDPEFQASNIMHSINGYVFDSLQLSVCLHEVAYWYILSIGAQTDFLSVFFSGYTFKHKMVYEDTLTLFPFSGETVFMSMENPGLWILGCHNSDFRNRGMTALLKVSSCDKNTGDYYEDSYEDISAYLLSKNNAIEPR
T1 sequence (P00451 1709-2351 limits assumed): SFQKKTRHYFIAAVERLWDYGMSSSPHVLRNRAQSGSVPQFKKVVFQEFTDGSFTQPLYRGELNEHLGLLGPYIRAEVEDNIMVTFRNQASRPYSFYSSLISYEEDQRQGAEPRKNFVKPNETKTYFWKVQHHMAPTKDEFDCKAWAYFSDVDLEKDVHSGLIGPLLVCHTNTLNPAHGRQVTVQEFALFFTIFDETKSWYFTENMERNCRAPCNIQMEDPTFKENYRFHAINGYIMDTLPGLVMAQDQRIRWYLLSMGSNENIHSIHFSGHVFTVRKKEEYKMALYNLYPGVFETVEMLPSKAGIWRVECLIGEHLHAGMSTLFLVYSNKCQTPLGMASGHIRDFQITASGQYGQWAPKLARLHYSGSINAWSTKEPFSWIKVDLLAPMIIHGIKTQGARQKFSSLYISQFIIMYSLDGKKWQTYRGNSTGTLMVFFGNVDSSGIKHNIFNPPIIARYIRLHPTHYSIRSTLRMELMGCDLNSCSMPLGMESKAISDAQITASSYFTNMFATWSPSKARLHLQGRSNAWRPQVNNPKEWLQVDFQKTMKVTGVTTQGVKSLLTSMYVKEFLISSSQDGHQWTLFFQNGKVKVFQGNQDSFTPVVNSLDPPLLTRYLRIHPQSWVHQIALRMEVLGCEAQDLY
Chain of extrinsic activation complex (factor VIIa:tissue factor) (P08709 61-212 limits assumed): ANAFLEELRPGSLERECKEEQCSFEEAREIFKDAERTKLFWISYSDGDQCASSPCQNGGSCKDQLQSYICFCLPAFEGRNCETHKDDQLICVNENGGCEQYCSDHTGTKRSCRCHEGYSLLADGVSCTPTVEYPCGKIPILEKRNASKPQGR
Chain of extrinsic activation complex (factor VIIa:tissue factor) (P08709 213-466 limits assumed): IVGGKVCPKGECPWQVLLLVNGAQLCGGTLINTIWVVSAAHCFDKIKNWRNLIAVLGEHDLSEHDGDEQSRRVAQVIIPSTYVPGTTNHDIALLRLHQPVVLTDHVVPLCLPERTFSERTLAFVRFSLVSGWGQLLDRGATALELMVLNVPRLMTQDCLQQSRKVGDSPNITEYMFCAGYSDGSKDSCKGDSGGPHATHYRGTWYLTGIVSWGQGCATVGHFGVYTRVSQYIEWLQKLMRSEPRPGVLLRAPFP
Chain of extrinsic activation complex (factor VIIa:tissue factor) (P13726 33-295): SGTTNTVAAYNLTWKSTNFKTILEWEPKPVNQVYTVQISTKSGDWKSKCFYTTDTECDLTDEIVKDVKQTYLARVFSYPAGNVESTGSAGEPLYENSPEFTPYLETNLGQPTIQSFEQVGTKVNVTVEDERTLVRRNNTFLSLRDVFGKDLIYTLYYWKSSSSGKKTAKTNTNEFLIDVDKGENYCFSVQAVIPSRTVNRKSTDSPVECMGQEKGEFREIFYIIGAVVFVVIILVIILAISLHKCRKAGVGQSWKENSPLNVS

CARGYTLADNGKAC [Peptide 111-124]
Factor Xa Formation (% of Control Rate) Extrinsic [1]: 83 % of Control Rate | Factor Xa Formation (% of Control Rate) Intrinsic [2]: 121 % of Control Rate | Factor Xa Formation (% of Control Rate) RVVX (RVV-X): 77 | Thrombin Formation (% of Control Rate) [3]: 100 % of Control Rate

TEQE*GGEAVHEVEVVIK [Peptide 253-270]
inhibition of the rate and extent of Factor X activation by the extrinsic activation complex ([1]; 400 uM peptide, Factor X 5.25-84 nM (FIG. 1)): approximately 20% | Factor Xa Formation (% of Control Rate) Extrinsic [1]: 100 % of Control Rate | Factor Xa Formation (% of Control Rate) RVVX (RVV-X): 71

VVIKHNRFTKETYDFDI [Peptide 267-283]
inhibition at 400 µM ([1]; 400 uM peptide, Factor X 5.25-84 nM (FIG. 1), read-out: inhibition of the rate and extent of Factor X activation by the extrinsic activation complex): ≥ 90%

IVGGQECKDGECPWQA(K) (C-terminal added Lys) [Peptide 195-210 + K]
Factor Xa Formation (% of Control Rate) Extrinsic [1]: 88 % of Control Rate | Factor Xa Formation (% of Control Rate) Intrinsic [2]: 98 % of Control Rate | Factor Xa Formation (% of Control Rate) RVVX (RVV-X): 76 | Thrombin Formation (% of Control Rate) [3]: 99 % of Control Rate

C[C@H](NC(=O)[C@H](CC(=O)O)NC(=O)[C@H](CCC(=O)O)NC(=O)[C@H](CCC(N)=O)NC(=O)[C@H](CCCCN)NC(=O)[C@@H](NC(=O)[C@H](CC(=O)O)NC(=O)[C@H](Cc1ccc(O)cc1)NC(=O)CNC(=O)[C@H](C)NC(=O)[C@H](CS)NC(=O)[C@@H](N)Cc1ccccc1)[C@@H](C)O)C(=O)N[C@@H](CS)C(=O)O [Peptide 363-375] (H-FCAGYDTKQEDAC-OH; N-terminus and C-terminus assumed)
mode of inhibition of prothrombin activation ([3]; Dixon plots, varying prothrombin): noncompetitive

AVLRLKTPITFRMNVAPACL [Peptide 284-303]
Factor Xa Formation (% of Control Rate) Extrinsic [1]: 19 % of Control Rate | Factor X Activation (% Control) Experiment #1 Observed [1, 7]: 35.0 % Control | Factor X Activation (% Control) Experiment #2 Observed [1, 7]: 47.8 % Control | Ki ([1]; Dixon plots, mean ± SD for 4 to 5 determinations, read-out: Ki for Factor X Activation, Extrinsic): 73.6 ± 7.79 µM | IC50 ([1]; chromogenic assay, read-out: Concentration for 50% Inhibition, Rate of Factor Xa Formation, Extrinsic): 78 µM | inhibition of intrinsic pathway Factor X coagulant activity ([4]; clot formation assay): inhibited | IC50 ([4]; read-out: Concentration for 50% Inhibition, Coagulant Activity, Intrinsic, clotting assay): 46 µM | inhibition of extrinsic pathway-mediated Factor X coagulant activity ([5]; clot formation assay): less potent inhibitor | IC50 ([5]; read-out: Concentration for 50% Inhibition, Coagulant Activity, Extrinsic, clotting assay): > 500 µM | Factor Xa Formation (% of Control Rate) Intrinsic [2]: 0 % of Control Rate | Ki ([2]; Dixon plots, mean ± SD for 4 to 5 determinations, read-out: Ki for Factor X Activation, Intrinsic): 3.05 ± 1.77 µM | IC50 ([2]; chromogenic assay, read-out: Concentration for 50% Inhibition, Rate of Factor Xa Formation, Intrinsic): 1.7 µM and < 5 µM | inhibition of RVV-X pathway Factor X coagulant activity ([6]; clot formation assay): inhibited | IC50 ([6]; clotting assay, read-out: Concentration for 50% Inhibition, Coagulant Activity, RVV.X): 14 µM | Factor Xa Formation (% of Control Rate) RVVX (RVV-X): 34 | IC50 (RVV-X; read-out: Concentration for 50% Inhibition, Rate of Factor Xa Formation, RVV.X): 104 µM | Ki (RVV-X; read-out: Ki for Factor X Activation, RVV-X): 123 ± 23.9 µM | Thrombin Formation (% of Control Rate) [3]: 0 % of Control Rate | prevention of thrombin formation compared to buffer only ([3]; 200 uM of each peptide): greater than 40% | Ki ([3]; assays varying the substrate prothrombin, read-out: Ki for Factor Xa Function): 16.2 ± 4.54 µM

LYQAKRF *EGDRNTEQEEGG(K) [Peptide 238-259 + K]
Factor Xa Formation (% of Control Rate) Extrinsic [1]: 100 % of Control Rate | Factor Xa Formation (% of Control Rate) Intrinsic [2]: 71 % of Control Rate | Factor Xa Formation (% of Control Rate) RVVX (RVV-X): 100 | Thrombin Formation (% of Control Rate) [3]: 98 % of Control Rate
